“Also recorded” adds a separate entry of the source.
Legend:
HSP90β = molecular target: T1, HSP90β (Homo sapiens, UniProt P08238+Q16543); assay: In vitro kinase assay, SGK3 phosphorylation of HSP90β; type: biochemical
T1 construct: made in house; host or cells: E. coli (HSP90β, CDC37); SGK3 purchased from Thermo Scientific #PV3859

estrogen receptor (ER) = assay: Induction of estrogen-responsive genes in MCF-7 cells; type: cell-based, human
Method: RNA was isolated and qRT-PCR was performed as described by us[43], analyzed by the 2^−ΔΔCt method, using primer/probes sets (ABI), HSP90α (Hs00743767_sH), HSP90β (Hs00427665_g1), trefoil factor 1 (TFF1; Hs00907239_m1), cathepsin D (CTSD; Hs00157205_m1), progesterone receptor (PGR; Hs01556702_m1), and GAPDH (Hs99999905_m1). Assays were repeated, each in replicates of N = 2. […]
panel. KBU2046 was submitted to the Developmental Therapeutics Program (DTP) of the US National Cancer Institute (NCI), underwent initial screening across the NCI 60 cell line panel per DTP protocol 1, and the resultant COMPARE diagram is depicted above. Based upon its lack of […]
Supplementary Figure 3. […] Estrogen […]
receptor positive MCF-7 cells were cultured under hormone free conditions transfected pERE-Luc or empty control vector, along with constitutive active β-gal, grown under estrogen-free conditions, and pre-treated for 24 hours with nanomolar concentrations of estradiol, or with micromolar concentrations of genistein or KBU2046, as indicated. Luciferase activity was measured, normalized to that of β-gal, and values expressed as the percent of untreated vector control cells. Values are the mean±SD of a single experiment, with similar results seen in a separate repeat experiment, both in replicates of N=2.
(also on this page, place not known: luciferase/B-gal activity, % untreated vector control) […]

CK2 = CK2 in vitro kinase assay; type: biochemical; conditions: in the presence of CDC37
Source text: CK2 activity. […] If they haven’t, I […]
affected by KBU2046. Specifically, because of CK2’s known link to S226 we likewise suspected that it could be involved in the mechanism of action. CK2 was indeed included in the LUMIER assay (see
Fig. 6 and Supplementary Fig. 19). We used the LUMIER assay to evaluate whether KBU2046 was altering the binding of client protein kinases to HSP90β/CDC37 heterocomplexes in intact cells, and thereby evaluated hundreds of client protein kinases. In this manner, we observed that KBU2046 did […]
known mechanistic link, we also utilized our in vitro system to interrogate purified CK2 and specifically […]
below, and if requested, we are happy to insert these otherwise negative findings into supplementary […]
CK2 in vitro kinase assay. As described in Figs 6f and g, the ability of recombinant CK2 to phosphorylate serine 226 on HSP90β, in the presence of CDC37, was evaluated +/- KBU2046 (46). Reaction time in minutes
(Mins) is denoted. KBU2046 had no effect upon serine 226 phosphorylation.
12. On top of the 8th page of the Results (where the authors discuss data in Fig. 5b-d and in […]
hydrogen bond formation with Glu33 of Hsp90beta to create formation of a new pocket into which the drug binds. […]
Additional comment 1. Figure 4c: if the data are expressed as %VC, should not the VC bar be set at […]

[1] = molecular target: T2, client kinase binding to CDC37/HSP90β heterocomplexes in HEK293T cells (Homo sapiens, UniProt P08238+Q16543); assay: LUMIER assay of client kinase binding; type: cell-based
T2 construct: expressed in transfected cells; host or cells: HEK293T
T2 sequence (P08238 whole entry): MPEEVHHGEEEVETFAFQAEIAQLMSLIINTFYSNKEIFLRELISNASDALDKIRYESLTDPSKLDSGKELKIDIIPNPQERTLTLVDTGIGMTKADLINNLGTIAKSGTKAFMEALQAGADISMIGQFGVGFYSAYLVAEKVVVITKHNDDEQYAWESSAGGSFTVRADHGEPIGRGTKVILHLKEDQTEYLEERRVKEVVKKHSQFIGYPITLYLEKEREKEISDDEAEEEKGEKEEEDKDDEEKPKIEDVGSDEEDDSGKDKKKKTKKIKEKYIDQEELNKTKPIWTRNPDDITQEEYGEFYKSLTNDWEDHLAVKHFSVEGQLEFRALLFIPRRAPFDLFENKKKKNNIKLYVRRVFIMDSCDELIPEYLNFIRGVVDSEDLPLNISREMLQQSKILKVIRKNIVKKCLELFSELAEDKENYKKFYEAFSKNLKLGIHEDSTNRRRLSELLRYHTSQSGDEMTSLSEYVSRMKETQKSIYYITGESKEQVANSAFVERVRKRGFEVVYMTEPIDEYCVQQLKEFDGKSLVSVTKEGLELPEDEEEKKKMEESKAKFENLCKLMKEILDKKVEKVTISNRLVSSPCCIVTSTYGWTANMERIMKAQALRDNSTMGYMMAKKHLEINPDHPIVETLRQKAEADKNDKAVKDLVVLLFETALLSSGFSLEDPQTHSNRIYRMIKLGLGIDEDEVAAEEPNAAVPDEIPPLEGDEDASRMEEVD
T2 sequence (Q16543 whole entry): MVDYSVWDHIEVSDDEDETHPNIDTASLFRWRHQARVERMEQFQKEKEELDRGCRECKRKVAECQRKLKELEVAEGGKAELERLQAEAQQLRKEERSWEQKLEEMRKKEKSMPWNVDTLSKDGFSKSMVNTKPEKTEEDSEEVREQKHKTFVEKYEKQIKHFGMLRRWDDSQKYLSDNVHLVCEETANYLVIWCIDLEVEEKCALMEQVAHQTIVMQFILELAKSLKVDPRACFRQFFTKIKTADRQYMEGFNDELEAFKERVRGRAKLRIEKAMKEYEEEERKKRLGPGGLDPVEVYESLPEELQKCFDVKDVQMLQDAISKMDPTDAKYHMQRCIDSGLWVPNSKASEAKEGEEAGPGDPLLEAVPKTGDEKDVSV
Method: The LUMIER assay was performed as described, using reagents generously provided by that group.
Supplementary Figures 17. KBU2046-mediated changes in the signature of client proteins bound to HSP90β/CDC37 mediate effects upon cell motility.
LUMIER assay (a). HEK293T cells stably transfected with HSP90β-luciferase were transfected with 1 of 420 different FLAG-tagged protein kinases, treated with 10 µM KBU2046 for 3 days, and LUMIER assays performed as described 12. All experiments had N = 5 vehicle treated control plus N = 5 KBU2046 treated separate wells of cells. Those yielding a t-test p value <0.05 […]
in experiment #1, or those whose values were at or below baseline, were repeated in experiment […]
hetercomplex association with KBU2046 treatment in the same direction in both experiments were selected. Of 420 kinase proteins tested, 17 (4%) met these criteria (graphically depicted in manuscript Fig. 6a). For these 17 kinases, the experiment was repeated except that HEK293T cells were treated with TGFβ for the last 24 hrs of the 3 day incubation (graphically depicted in manuscript Fig. 6b). Wound healing assay (b-d). […]

T1 sequence (P08238 whole entry): as the sequence (P08238 whole entry) above
T1 sequence (Q16543 whole entry): as the sequence (Q16543 whole entry) above

O=C1c2ccccc2OCC1c1ccc(F)cc1 (racemic) [KBU2046, (±)-3(4-fluorophenyl)chroman-4-one]
SGK3-mediated phosphorylation of HSP90β (HSP90β; HSP90β, CDC37, SGK3): phosphorylation was further increased | SGK3-mediated phosphorylation of HSP90β (HSP90β; with MAP3K6 added): decreases in the presence of KBU2046 | activation of estrogen-responsive genes (estrogen receptor (ER)): did not activate estrogen-responsive genes; also recorded: does not activate the estrogen receptor | CK2 phosphorylation of S226 on HSP90β (CK2): does not inhibit | number of kinases with decreased binding ([1]; 10 µM, 3 days): 7 | number of kinases with increased binding ([1]; 10 µM, 3 days): 10 | RAF1 binding to complexes ([1]; TGFβ-treated cells): decreased binding | RIPK1 binding to complexes ([1]; TGFβ-treated cells): decreased | SGK3 binding to complexes ([1]; TGFβ-treated cells): increased | share of client proteins with affected binding ([1]; as stated in rebuttal letter): 1% | CK2 binding to the HSP90β/CDC37 heterocomplex ([1]; in cells): not alter the binding of CK2 | share of kinases with significantly changed binding ([1]; of 420 kinase proteins screened): 4% | number of kinases with significantly changed binding ([1]; of 420 kinase proteins screened, 10 µM, 3 days): 17

— PMC6014988, “Precision therapeutic targeting of human cancer cell motility” (Nature Communications, 2018)
